Source: US11021444B2, “Antiviral compounds” (priority 2013, dated 2021)
Where two headings read alike, the source gives them in different places.

How the values were obtained:
[1] = test system: Respiratory Syncytial Virus (RSV) long strain; assay: microbe, parasite or virus in culture; assay type: cell-based; details: human respiratory syncytial virus, Tables A and B list compounds by EC50 band
Procedure, shortened: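 HEp-2 cells infected with 100 TCID50 virus per well, compounds in duplicate, 9-point 1/3 dilutions from 100 μM or 1 μM, 1% DMSO. After 5 days at 37 °C, cell viability (CPE protection) read by CCK-8 absorbance at 450 nm, 630 nm background.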

[2] = Cytotoxicity Determination (CCK-8, without addition of virus); assay type: cell-based; details: human, 50% cytotoxicity concentration (CC50)
Procedure, shortened: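 HEp-2 cells were seeded at 1,500 cells/well one day before compound addition. Compounds were tested without virus in duplicate over 7 points from 100 μM in 1/2 steps, with 1% final DMSO, 5 days at 37 °C, 5% CO2. Viability was read by CCK-8 after 3-4 hours.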

recombinant RSV complex = recombinant RSV complex (Human respiratory syncytial virus A, UniProt P28887); assay: RSV Polymerase Inhibition Assay; assay type: biochemical
Procedure, shortened: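 10 nM recombinant RSV polymerase complex in Tris-HCl pH 7.5, 6 mM MgCl2 with RNA oligonucleotide template and radionucleotides, incubated 2 h at 30 °C with increasing inhibitor concentrations. Reaction stopped with EDTA; radiolabeled RNA product counted by scintillation.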

[3] = HEp-2, 120 h, read-out: 50% effective concentration (EC50), HEp-2 cells infected with RSV long strain, 5 days, CCK-8 readout
[4] = 120 h, read-out: 50% effective concentration (EC50), HEp-2 cells infected with RSV long strain, 5 days, CCK-8 readout

Chain of recombinant RSV complex (P28887 whole entry): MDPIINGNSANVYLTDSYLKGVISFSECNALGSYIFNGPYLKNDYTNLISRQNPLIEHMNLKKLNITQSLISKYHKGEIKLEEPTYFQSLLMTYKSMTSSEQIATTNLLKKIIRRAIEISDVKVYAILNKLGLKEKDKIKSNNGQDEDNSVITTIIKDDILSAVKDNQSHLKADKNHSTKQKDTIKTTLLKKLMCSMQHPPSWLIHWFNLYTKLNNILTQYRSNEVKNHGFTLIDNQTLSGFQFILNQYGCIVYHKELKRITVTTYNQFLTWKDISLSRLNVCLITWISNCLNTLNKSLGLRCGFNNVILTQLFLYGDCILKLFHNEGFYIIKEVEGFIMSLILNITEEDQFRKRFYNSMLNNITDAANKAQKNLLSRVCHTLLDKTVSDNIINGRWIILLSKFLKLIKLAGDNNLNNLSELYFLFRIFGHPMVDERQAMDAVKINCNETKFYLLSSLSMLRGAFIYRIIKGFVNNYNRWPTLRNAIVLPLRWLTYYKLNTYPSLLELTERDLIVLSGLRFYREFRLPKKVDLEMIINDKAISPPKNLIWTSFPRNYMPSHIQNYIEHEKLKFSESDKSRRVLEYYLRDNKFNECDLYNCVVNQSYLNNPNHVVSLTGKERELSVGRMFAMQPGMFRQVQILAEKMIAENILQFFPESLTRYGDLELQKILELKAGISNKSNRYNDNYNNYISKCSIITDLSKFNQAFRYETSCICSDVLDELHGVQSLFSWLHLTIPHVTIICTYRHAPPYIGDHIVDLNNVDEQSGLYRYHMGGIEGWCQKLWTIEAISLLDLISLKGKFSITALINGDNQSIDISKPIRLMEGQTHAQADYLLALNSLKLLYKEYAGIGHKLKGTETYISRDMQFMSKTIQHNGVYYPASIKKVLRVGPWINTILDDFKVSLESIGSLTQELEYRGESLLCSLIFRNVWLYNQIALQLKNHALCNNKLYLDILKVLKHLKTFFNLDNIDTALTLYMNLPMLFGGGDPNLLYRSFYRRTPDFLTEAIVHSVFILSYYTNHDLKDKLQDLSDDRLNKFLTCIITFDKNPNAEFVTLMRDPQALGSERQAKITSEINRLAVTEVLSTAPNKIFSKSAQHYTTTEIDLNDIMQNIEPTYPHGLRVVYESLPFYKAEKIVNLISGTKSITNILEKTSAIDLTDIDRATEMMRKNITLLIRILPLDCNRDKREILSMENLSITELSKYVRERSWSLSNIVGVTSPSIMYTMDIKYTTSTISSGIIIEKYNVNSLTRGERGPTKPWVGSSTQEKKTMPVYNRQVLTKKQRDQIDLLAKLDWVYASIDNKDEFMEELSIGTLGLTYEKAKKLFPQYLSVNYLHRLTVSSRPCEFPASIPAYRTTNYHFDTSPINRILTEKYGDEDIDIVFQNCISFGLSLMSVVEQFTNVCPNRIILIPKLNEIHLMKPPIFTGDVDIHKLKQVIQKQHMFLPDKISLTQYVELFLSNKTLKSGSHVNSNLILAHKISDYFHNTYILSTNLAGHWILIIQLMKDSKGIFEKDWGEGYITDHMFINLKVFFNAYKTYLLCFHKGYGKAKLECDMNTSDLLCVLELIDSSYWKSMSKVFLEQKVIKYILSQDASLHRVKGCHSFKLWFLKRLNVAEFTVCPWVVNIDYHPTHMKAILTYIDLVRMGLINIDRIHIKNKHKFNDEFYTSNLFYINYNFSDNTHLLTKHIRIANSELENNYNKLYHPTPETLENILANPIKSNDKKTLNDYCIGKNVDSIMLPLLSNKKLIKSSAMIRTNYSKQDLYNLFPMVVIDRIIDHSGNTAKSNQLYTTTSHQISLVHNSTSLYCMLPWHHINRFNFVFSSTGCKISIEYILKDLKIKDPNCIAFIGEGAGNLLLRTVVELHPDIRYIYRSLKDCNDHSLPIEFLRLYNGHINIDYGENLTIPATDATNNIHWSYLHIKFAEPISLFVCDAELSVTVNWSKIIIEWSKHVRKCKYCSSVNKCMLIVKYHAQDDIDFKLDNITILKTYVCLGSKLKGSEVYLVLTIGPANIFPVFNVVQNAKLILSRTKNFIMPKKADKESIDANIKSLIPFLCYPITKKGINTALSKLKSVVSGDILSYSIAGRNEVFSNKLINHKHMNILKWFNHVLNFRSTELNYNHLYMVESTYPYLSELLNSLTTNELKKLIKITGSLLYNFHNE
Chain of recombinant RSV complex (P03421 whole entry, further chain): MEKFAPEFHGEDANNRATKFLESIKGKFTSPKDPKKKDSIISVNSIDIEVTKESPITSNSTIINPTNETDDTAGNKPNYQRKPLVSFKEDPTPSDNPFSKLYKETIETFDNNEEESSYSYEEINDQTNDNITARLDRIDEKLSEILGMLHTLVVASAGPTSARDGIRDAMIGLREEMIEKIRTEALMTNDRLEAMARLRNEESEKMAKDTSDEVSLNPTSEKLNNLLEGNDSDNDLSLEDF

SMILES	EC50 [1, 3]	CC50 at 5 days [2]	IC50 (recombinant RSV complex)	EC50 [1, 4]
COc1cc(C(=O)NCC(O)c2ccc3c(n2)-c2c(sc4c(F)cccc24)CO3)ccc1OCCO (stereo not drawn) [Compound 161]	1000 to 50000 nM	10 to 100 µM	< 100000 nM	–
COc1cc(C(=O)NCC(=O)c2cc3c(c(-c4c[nH]c5c(F)cccc45)n2)OCC3)ccc1OCCF [Compound 287]	< 1000 nM	> 100 µM	< 1000 nM	–
COc1cc(C(=O)NC[C@](O)(c2cc3c(c(-c4ccc(F)cc4)n2)OCC3(N)CO)C(F)(F)F)ccc1OC1CC1 (stereo partly drawn) [Compound 654]	< 1000 nM	10 to 100 µM	< 1000 nM	–
COc1cc(C(=O)NCC(F)(CF)c2ccc(OC)c(-c3ccc(F)c(Cl)c3)n2)ccc1OCCO (stereo not drawn) [Compound 435]	< 1000 nM	10 to 100 µM	< 1000 nM	–
COc1cc(C(=O)NCC(C)(O)c2cc3c(c(-c4ccc(F)c(Cl)c4)n2)NCC3)ccc1OCCF (stereo not drawn) [Compound 286]	1000 to 50000 nM	10 to 100 µM	< 10000 nM	–
COc1ccc(C(=O)NCC(C)(O)c2ccc(OC)c(-c3ccc(F)c(Cl)c3)n2)cc1 (stereo not drawn) [Compound 174]	1000 to 50000 nM	10 to 100 µM	< 10000 nM	–
COc1cc(C(=O)NCC(=O)c2cc3c(c(-c4ccc(F)c(Cl)c4)n2)OCC3C)ccc1OCCO (stereo not drawn) [Compound 305]	< 1000 nM	10 to 100 µM	< 1000 nM	–
COc1cc(C(=O)NCC(O)(c2cc(C(C)(C)NC(C)=O)cc(-c3ccc(F)cc3)n2)C(F)(F)F)ccc1OC[C@@H](C)O (stereo partly drawn) [Compound 620]	–	> 100 µM	< 1000 nM	< 1000 nM
CC(C)(N)c1cc(-c2ccc(F)c(Cl)c2)nc(C(O)(CNC(=O)c2cn3cccnc3n2)C(F)(F)F)c1 (stereo not drawn) [Compound 477]	1000 to 50000 nM	10 to 100 µM	< 10000 nM	–
COc1cc(C(=O)NCC(=O)c2cc3c(C)coc3c(-c3ccc(F)c(Cl)c3)n2)ccc1OC1CC1 [Compound 474]	< 1000 nM	> 100 µM	< 1000 nM	–
COc1ccc(C(O)(CNC(=O)c2ccc3c(c2)ncn3C)C(F)(F)F)nc1-c1ccc(F)c(Cl)c1 (stereo not drawn) [Compound 265]	1000 to 50000 nM	10 to 100 µM	< 10000 nM	–
Cc1nc(C(=O)NCC(O)(c2cc(C(C)(C)N)cc(-c3ccc(F)cc3)n2)C(F)(F)F)co1 (stereo not drawn) [Compound 607]	1000 to 50000 nM	10 to 100 µM	< 10000 nM	–
COc1ccc(C(O)(CNC(=O)c2ccc3[nH]c(=O)n(C)c3c2)C(F)(F)F)nc1-c1ccc(F)c(Cl)c1 (stereo not drawn) [Compound 267]	< 1000 nM	10 to 100 µM	< 1000 nM	–
COc1cc(C(=O)NCC(O)(CN2CCNCC2)c2ccc(OC)c(-c3ccc(F)c(Cl)c3)n2)ccc1OCCO (stereo not drawn) [Compound 190]	–	> 100 µM	< 1000 nM	1000 to 50000 nM
COc1cc(C(=O)NCC(O)(c2cc3c(c(-c4ccc(F)c(Cl)c4)n2)OCC3(C)C)C(F)(F)F)ccc1CN1CCNC1=O (stereo not drawn) [Compound 216]	1000 to 50000 nM	10 to 100 µM	< 10000 nM	–
COc1cc(C(=O)NCC(O)(c2cc(C(C)(N)CO)cc(-c3ccc(F)cc3)n2)C(F)(F)F)ccc1OCCO (stereo not drawn) [Compound 484]	1000 to 50000 nM	> 100 µM	< 10000 nM	–
COc1ccc(C(O)(CNC(=O)c2ccc3ncccc3c2)C(F)(F)F)nc1-c1ccc(F)c(Cl)c1 (stereo not drawn) [Compound 252]	1000 to 50000 nM	10 to 100 µM	< 1000 nM	–
COc1cc(C(=O)NCC(O)(c2cc3c(c(-c4ccc(C(F)(F)F)nc4)n2)OCC3(C)N)C(F)(F)F)ccc1OCCO (stereo not drawn) [Compound 673]	1000 to 50000 nM	> 100 µM	< 10000 nM	–
COc1cc(C(=O)NCC(O)(c2cc3c(c(-c4ccc(Cl)c(F)c4)n2)OCC3(C)N)C(F)(F)F)ccc1CO[C@@H](C)O (stereo partly drawn) [Compound 666]	< 1000 nM	10 to 100 µM	< 1000 nM	–
COc1cc(C(=O)NCC(C)(O)c2cc3c(c(-c4ccc(F)c(Cl)c4)n2)OCC3(C)C)ccc1OCCF (stereo not drawn) [Compound 227]	< 1000 nM	10 to 100 µM	< 1000 nM	–
COc1ccc(C(O)(CNC(=O)c2ccc3c(c2)NC(=O)CO3)C(F)(F)F)nc1-c1ccc(F)c(Cl)c1 (stereo not drawn) [Compound 258]	< 1000 nM	10 to 100 µM	< 1000 nM	–
Cc1ncc(C(=O)NCC(O)(c2cc(C(C)(C)N)cc(-c3ccc(F)cc3)n2)C(F)(F)F)o1 (stereo not drawn) [Compound 608]	1000 to 50000 nM	> 100 µM	< 10000 nM	–
COc1cc(C(=O)NCC(O)(c2cc(CO)cc(-c3ccc(F)c(Cl)c3)n2)C(F)(F)F)ccc1OC1CC1 (stereo not drawn) [Compound 465]	< 1000 nM	10 to 100 µM	< 1000 nM	–
